According to ChEMBL document CHEMBL3877278, “Antiproliferative activity of amino substituted benzo[b]thieno[2,3-b]pyrido[1,2-a]benzimidazoles explored by 2D and 3D cell culture system” (Eur J Med Chem, 2017):

Assays:
[1] = Antiproliferative activity against 2D culture of human MDA-MB-231 cells after 72 hrs MTS assay; format: functional, cell-based; details: MDA-MB-231, 72 h
[2] = Antiproliferative activity against 2D culture of human SK-BR-3 cells after 72 hrs MTS assay; format: functional, cell-based; details: SK-BR-3, 72 h
[3] = Antiproliferative activity against 2D culture of human T47D cells after 72 hrs MTS assay; format: functional, cell-based
[4] = Antiproliferative activity against 3D culture of human MDA-MB-231 cells after 72 hrs MTS assay; format: functional, cell-based; details: MDA-MB-231, 72 h
[5] = Antiproliferative activity against 3D culture of human SK-BR-3 cells after 72 hrs MTS assay; format: functional, cell-based; details: SK-BR-3, 72 h
[6] = Antiproliferative activity against 3D culture of human T47D cells after 72 hrs MTS assay; format: functional, cell-based
[7] = Lipophilicity, log D of the compound at pH 2.7 by HPLC method; format: physicochemical; details: buffer
[8] = Lipophilicity, log D of the compound at pH 7.4 by HPLC method; format: physicochemical; details: buffer

| logD [7] | logD ([8]; read-out: logD) | logD [8] | Structure (SMILES) | IC50 [1] [µM] | IC50 [2] [µM] | IC50 [3] [µM] | IC50 [4] [µM] | IC50 [5] [µM] | IC50 [6] [µM] |
| --- | --- | --- | --- | --- | --- | --- | --- | --- | --- |
| 6.32 | 6.3 |  | N#Cc1cc2sc3cc(F)ccc3c2n2c1nc1ccccc12 | > 30 | > 30 | 1 | > 30 | > 30 | > 30 |
| 3 | 2.46 |  | N#CC1C(=O)c2ccc(F)cc2-n2c1nc1ccccc12 (stereo not drawn) | > 30 | > 30 | > 30 | > 30 | > 30 | > 30 |
| 6.11 | 6.05 |  | N#Cc1c(Cl)c2ccc(F)cc2n2c1nc1ccccc12 | 11 | 5 | 2 | > 30 | > 30 | > 30 |
| 4.04 | 3.2 |  | N#Cc1c(Cl)c2sc3cc(F)ccc3c2n2c1nc1ccccc12 | > 30 | > 30 | > 30 | > 30 | > 30 | > 30 |
| 4.04 | 3.2 |  | N#Cc1c(=O)c2sc3cc(F)ccc3c2n2c1[nH]c1ccccc12 | > 30 | > 30 | > 30 | > 30 | > 30 | > 30 |
| 2.6 | 2.09 |  | N#CC1C(=O)c2ccccc2-n2c1nc1ccccc12 (stereo not drawn) | > 30 | > 30 | > 30 | > 30 | > 30 | > 30 |
| 4.67 | 6.99 |  | CC(C)CNc1c(C#N)c2nc3ccccc3n2c2c1sc1ccccc12 | 9 | > 30 | 5 | > 30 | > 30 | > 30 |
| 7.51 |  | 9.11 | N#Cc1c(N2CCCCC2)c2ccc(N3CCCCC3)cc2n2c1nc1ccccc12 | > 30 | > 30 | > 30 | > 30 | > 30 | > 30 |
| 6.45 | 6.58 |  | CC(C)CNc1ccc2cc(C#N)c3nc4ccccc4n3c2c1 | 5 | 1 | 3 | > 30 | > 30 | 19 |
| 1.03 | 2.91 |  | CN(C)CCCNc1ccc2c(c1)sc1cc(C#N)c3nc4ccccc4n3c12 | 2 | 4 | 5 | 5 | 27 | > 30 |
| 3.76 | 2.95 |  | N#Cc1c(=O)c2sc3ccccc3c2n2c1[nH]c1ccccc12 | > 30 | > 30 | > 30 | > 30 | > 30 | > 30 |
| 7.7 | 8.34 |  | N#Cc1c(N2CCCCC2)c2sc3ccccc3c2n2c1nc1ccccc12 | 6 | > 30 | 5 | > 30 | > 30 | > 30 |
| -0.05 | 2.26 |  | CN(C)CCCNc1c(C#N)c2nc3ccccc3n2c2ccccc12 | 6 | 4 | 29 | 7 | > 30 | > 30 |

Continued, compound first:

| Structure (SMILES) | logD [7] | logD ([8]; read-out: logD) | logD [8] | IC50 [1] [µM] | IC50 [2] [µM] | IC50 [3] [µM] | IC50 [4] [µM] | IC50 [5] [µM] | IC50 [6] [µM] |
| --- | --- | --- | --- | --- | --- | --- | --- | --- | --- |
| N#Cc1c(Cl)c2ccccc2n2c1nc1ccccc12 | 5.9 | 5.85 |  | > 30 | > 30 | 1 | > 30 | > 30 | > 30 |
| N#Cc1c(N2CCNCC2)c2ccccc2n2c1nc1ccccc12 | 0.53 | 2.22 |  | 8 | 9 | > 30 | 7 | > 30 | > 30 |
| CN(C)CCCNc1c(C#N)c2nc3ccccc3n2c2c1sc1ccccc12 | 0.69 | 3.44 |  | 3 | 1 | 4 | 4 | 10 | 23 |
| N#Cc1c(Cl)c2sc3ccccc3c2n2c1nc1ccccc12 | 7.38 | 7.32 |  | > 30 | > 30 | 1 | > 30 | > 30 | > 30 |
| CC(C)CNc1ccc2c(c1)sc1c(NCC(C)C)c(C#N)c3nc4ccccc4n3c12 |  |  |  | > 30 | > 30 | 4 | > 30 | > 30 | 8 |
| CC(C)CNc1ccc2c(NCC(C)C)c(C#N)c3nc4ccccc4n3c2c1 |  |  |  | > 30 | 5 | 12 | > 30 | > 30 | 19 |
| N#Cc1c(N2CCNCC2)c2sc3ccccc3c2n2c1nc1ccccc12 | 1.08 | 3.44 |  | 5 | 4 | 5 | 5 | > 30 | > 30 |
| COc1cccc2c1C(=O)c1c(O)c3c(c(O)c1C2=O)C[C@@](O)(C(=O)CO)C[C@@H]3O[C@H]1C[C@H](N)[C@H](O)[C@H](C)O1 [DOXORUBICIN] |  |  |  |  |  | 0.08 |  | 1.29 | 1.01 |
| N#Cc1cc2ccc(N3CCCCC3)cc2n2c1nc1ccccc12 | 7 | 7.07 |  | 7 | 3 | > 30 | > 30 | > 30 | > 30 |
| N#Cc1cc2sc3cc(N4CCCCC4)ccc3c2n2c1nc1ccccc12 | 8.52 | 8.5 |  | > 30 | > 30 | > 30 | > 30 | > 30 | > 30 |
| N#Cc1c(N2CCCCC2)c2ccccc2n2c1nc1ccccc12 | 6.36 | 6.91 |  | > 30 | > 30 | > 30 | 3 | > 30 | > 30 |
| N#Cc1c(N2CCCCC2)c2sc3cc(N4CCCCC4)ccc3c2n2c1nc1ccccc12 |  |  |  | > 30 | > 30 | > 30 | > 30 | > 30 | > 30 |
| CC(C)CNc1ccc2c(c1)sc1cc(C#N)c3nc4ccccc4n3c12 | 7.76 | 7.77 |  | 3 | 5 | 2 | > 30 | > 30 | 12 |
| CC(C)CNc1c(C#N)c2nc3ccccc3n2c2ccccc12 | 2.77 | 5.52 |  | > 30 | 4 | > 30 | > 30 | > 30 | > 30 |
| N#Cc1cc2sc3cc(N4CCNCC4)ccc3c2n2c1nc1ccccc12 | 0.84 | 2.75 |  | 4 | 2 | 5 | 19 | 24 | 26 |
| N#Cc1cc2ccc(F)cc2n2c1nc1ccccc12 | 5.14 | 5.11 |  | 30 | > 30 | > 30 | > 30 | > 30 | > 30 |
| N#Cc1c(N2CCNCC2)c2sc3cc(N4CCNCC4)ccc3c2n2c1nc1ccccc12 | -0.51 | 1.89 |  | 4 | 8 | 12 | 17 | > 30 | > 30 |
| N#Cc1c(N2CCNCC2)c2ccc(N3CCNCC3)cc2n2c1nc1ccccc12 | -0.98 | 0.87 |  | 2 | 7 | 5 | 9 | > 30 | > 30 |
| CN(C)CCCNc1ccc2cc(C#N)c3nc4ccccc4n3c2c1 | 0.44 | 2.14 |  | 3 | 4 | 12 | 11 | > 30 | > 30 |
| N#Cc1cc2ccc(N3CCNCC3)cc2n2c1nc1ccccc12 | 0.27 | 2.01 |  | 3 | 2 | 15 | 5 | > 30 | > 30 |
